The source of these data is US20090099094A1, “Use of Somatostatin Agonists to Treat Medullary Thyroid Carcinoma” (priority 2007, published 2009).

Test [1] has as its target SSTR4 (Homo sapiens, UniProt P31391). Description: SSTR receptor binding affinity (Ki), SSTR4. Conditions: read-out: SSTR Specificity Ki SSTR4.
In test [2] the target is SSTR1 (Homo sapiens, UniProt P30872). Description: SSTR receptor binding affinity (Ki), SSTR1. The settings on record: read-out: SSTR Specificity Ki SSTR1.
Test [3] relates to medullary thyroid carcinoma primary cultures. Description: Cell viability of MTC primary cultures (MTT). The class given is cell-based, human. The settings on record: 10^−8 M, forty-eight hours. The protocol: Primary cultured cells from 18 selected MTC samples were incubated in ninety six well plates for forty eight hours with each SSTR agonist at 10^−8 M. Control cells were treated with vehicle solution. Cell viability was measured by a colorimetric method among eight replicates from treated and untreated (control) primary cultured cells. […] Data are expressed as the mean±SE percent cell viability reduction vs. untreated control cells. *P<0.05, and **P<0.01 vs. control.
(§1) Tissue samples were surgically removed in accordance with the guidelines of the local comnmittees on human research. Thyroid tissue samples were obtained under sterile conditions and immediately minced in RPMI 1640 tissue culture medium. Tissues were incubated with 0.25% trypsin overnight at 4° C. and then dissociated using 0.35% collagenase (Sigma, Milano, ITALY) and 1% trypsin at 37° C. for sixty minutes. Cell suspensions were filtered through double layers of gaus(e and washed twice with serum-free F-12 Ham's Nutrient Modified Medium (F-12; Euroclone Ltd, Wetherby, UNITED KINGDOM). Tumor cells were re-suspended in F-12 with 10% fetal bovine serum and antibiotics, seeded in ninety-six well culture plates (˜2×10^4 cells/well) and incubated at 37° C. in a humidified atmosphere of 5% CO2 and 95% air according to known procedures (Zatelli, M. C. et al., Endocrinology, 2005, 146:2692-8). Approximately twenty-four hours later, the prepared cells were treated with the selected somatostatin agonist and were monitored for hormone secretion and overall viability. Informed consent of the patients was obtained for disclosing clinical investigation and performing the in vitro study.
The effects of the tested somatostatin analogs on medullary thyroid carcinoma primary culture cell viability were assessed with a Cell Proliferation Kit I MTT® (Roche Diagnostics GmbH, Mannheim, GERMANY) which employs a colorimetric method for determining the number of viable cells in proliferation assays. Primary cultured cells were plated in ninety-six multiwell plates (2×10^4 cells/well) and incubated for forty-eight hours in a medium supplemented with 10% fetal bovine serum in the presence or absence of each somatostatin analog at 10^−8M. Treatments were renewed after the first twenty-four hours of incubation.
In order to investigate the effects of somatostatin analogs on medullary thyroid carcinoma cell viability, an MTT assay was performed in primary cultures derived from the eighteen selected medullary thyroid carcinoma samples, treated with or without each somatostatin analog at […] for forty-eight hours. Percent cell viability reduction compared to a control in each primary culture under treatment with each somatostatin analog is reported in Table 6.

For test [4], the system named is MTC. The settings on record: cited from earlier work.
The target in test [5] is SSTR3 (Homo sapiens, UniProt P32745). The experiment in a line: SSTR receptor binding affinity (Ki), SSTR3. The settings on record: read-out: SSTR Specificity Ki SSTR3.
SSTR3, sequence (P32745 whole entry): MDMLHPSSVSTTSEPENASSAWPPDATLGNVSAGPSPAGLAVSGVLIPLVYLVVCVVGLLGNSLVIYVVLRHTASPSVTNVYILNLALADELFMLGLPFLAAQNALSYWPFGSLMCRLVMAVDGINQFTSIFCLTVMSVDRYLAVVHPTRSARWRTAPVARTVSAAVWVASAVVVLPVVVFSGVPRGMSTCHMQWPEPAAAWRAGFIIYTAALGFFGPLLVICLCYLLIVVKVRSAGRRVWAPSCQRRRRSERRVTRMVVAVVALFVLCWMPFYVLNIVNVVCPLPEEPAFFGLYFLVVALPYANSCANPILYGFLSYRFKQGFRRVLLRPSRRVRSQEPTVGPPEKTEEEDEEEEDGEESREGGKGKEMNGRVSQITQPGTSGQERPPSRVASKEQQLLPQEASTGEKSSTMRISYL
Test [6] deals with medullary thyroid carcinoma primary cultures. The experiment in a line: Calcitonin secretion by MTC primary cultures (IRMA). The class given is cell-based, human. Conditions: 10^−8 M, six hours. The protocol: Primary cultured cells from 18 selected MTC samples were incubated in ninety six well plates for six hours with each SSTR agonist at 10^−8 M. Control cells were treated with vehicle solution. Calcitonin levels in the conditioned medium were measured by immunoradiometric assay (IRMA) among eight replicates in the conditioned medium from treated and untreated (control) primary cultured cells. […] Data are expressed as the mean±SE percent hormone secretion inhibition vs. untreated control cells. *P<0.05 and **P<0.01 vs. control.
as §1
Calcitonin levels were measured in a conditioned medium from treated and untreated primary cultured cells with the calcitonin-U.S.-IRMA® kit (Biosource Europe, Nivelles, BELGIUM) after a six hour treatment with […] of the selected somatostatin analogs. The intra- and inter-assay variation coefficients were 1.9-2.7% and 1.9-3.3%, respectively. The detection limit was 0.8 pg/ml. Hormone assays were performed in duplicate of conditioned medium from treated cells. Results were obtained by determining the mean value among eight replicates.
In order to investigate the effects of somatostatin analogs on hormone secretion, calcitonin and CgA levels were measured in conditioned media collected from primary cultures derived from the selected eighteen medullary thyroid carcinoma treated with or without each somatostatin analog at 10^−8M for six hours.
According to this criterion, […] as “responders” (group A: primary cultures #3, #5, #6, #7, #11, #12, #13, #14, #15, #16) and nine as “non responders” (group B: primary cultures #1, #2, #4, #8, #9, #10, #17, #18).

Setting [7] is: MTC primary culture #1 (non responder).
The mark [8] stands for this setting: MTC primary culture #2 (non responder).
Setting [9] is: MTC primary culture #3 (responder).
Setting [10] is: MTC primary culture #4 (non responder).
The mark [11] stands for this setting: MTC primary culture #5 (responder).
Where [12] appears, read: MTC primary culture #6 (responder).
[13] abbreviates: MTC primary culture #7 (responder).
Where [14] appears, read: MTC primary culture #8 (non responder).
Where [15] appears, read: MTC primary culture #9 (non responder).
Setting [16] is: MTC primary culture #10 (non responder).
Setting [17] is: MTC primary culture #11 (responder).
Setting [18] is: MTC primary culture #12 (responder).
Where [19] appears, read: MTC primary culture #13 (responder).
Where [20] appears, read: MTC primary culture #14 (responder).
[21] abbreviates: MTC primary culture #15 (responder).
[22] abbreviates: MTC primary culture #16 (responder).
Setting [23] is: MTC primary culture #17 (non responder).
The mark [24] stands for this setting: MTC primary culture #18 (non responder).

SSTR1, sequence (P30872 whole entry): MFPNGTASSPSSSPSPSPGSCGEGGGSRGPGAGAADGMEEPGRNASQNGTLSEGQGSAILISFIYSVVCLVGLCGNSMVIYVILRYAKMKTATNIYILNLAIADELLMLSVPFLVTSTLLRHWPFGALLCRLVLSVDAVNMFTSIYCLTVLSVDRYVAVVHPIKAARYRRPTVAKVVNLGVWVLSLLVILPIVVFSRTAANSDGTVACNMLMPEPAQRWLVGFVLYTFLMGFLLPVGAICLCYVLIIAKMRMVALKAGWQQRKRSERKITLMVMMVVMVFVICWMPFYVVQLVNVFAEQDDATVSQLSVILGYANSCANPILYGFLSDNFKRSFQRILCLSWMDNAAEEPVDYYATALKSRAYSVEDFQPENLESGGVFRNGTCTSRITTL
SSTR4, sequence (P31391 whole entry): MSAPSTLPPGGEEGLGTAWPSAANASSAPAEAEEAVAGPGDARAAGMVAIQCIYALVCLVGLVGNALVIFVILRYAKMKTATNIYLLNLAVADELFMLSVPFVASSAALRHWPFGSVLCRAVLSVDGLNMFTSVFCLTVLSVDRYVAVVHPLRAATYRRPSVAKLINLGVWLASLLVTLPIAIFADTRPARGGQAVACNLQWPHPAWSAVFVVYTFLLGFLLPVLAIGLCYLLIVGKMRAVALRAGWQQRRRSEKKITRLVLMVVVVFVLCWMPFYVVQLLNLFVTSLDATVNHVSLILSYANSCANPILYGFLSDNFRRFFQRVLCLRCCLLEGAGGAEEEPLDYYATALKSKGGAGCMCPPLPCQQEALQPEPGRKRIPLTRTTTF

Regarding `CC[C@@H]1NC(=O)[C@H](CCCCN)NC(=O)[C@@H](Cc2c[nH]c3ccccc23)NC(=O)[C@H](Cc2ccc(O)cc2)NC(=O)[C@@H](NC(=O)[C@@H](Cc2ccccc2)NC(=O)CN2CCN(CCO)CC2)CSSC[C@@H](C(=O)N[C@H](C(N)=O)[C@@H](C)O)NC1=O` [4-(2-Hydroxyethyl)-1-piperazinylacetyl-D-Phe-c[Cys-Tyr-D-Trp-Lys-Abu-Cys]-Thr-NH2], the results for the inhibitory constant (Ki) in test [1] and in test [2] were 6.36 µM and 4.52 µM, respectively.

For the molecule `CC(C)[C@@H]1NC(=O)[C@H](CCCCN)NC(=O)[C@@H](Cc2c[nH]c3ccccc23)NC(=O)[C@H](Cc2ccc(O)cc2)NC(=O)[C@@H](NC(=O)[C@H](N)Cc2ccc3ccccc3c2)CSSC[C@@H](C(=O)N[C@H](C(N)=O)[C@@H](C)O)NC1=O` [lanreotide, D-β-Nal-c[Cys-Tyr-D-Trp-Lys-Val-Cys]-Thr-NH2, reference compound], the “% cell viability reduction vs. control” value in test [3] (setting [7]) is recorded as −6.1%; in test [3] (setting [8]) it was −57.0%; in test [3] (setting [9]), 1.5%; in test [3] (setting [10]), −25.8%; in test [3] (setting [11]), 13.4%; in test [3] (setting [12]), 9.7%. Also, the “% cell viability reduction vs. control” value was 54.4% in test [3] (setting [13]); −7.9% in test [3] (setting [14]); −8.6% in test [3] (setting [15]); 7.0% in test [3] (setting [16]); −11.2% in test [3] (setting [17]); 3.5% in test [3] (setting [18]). The “% cell viability reduction vs. control” value in test [3] (setting [19]) was 23.1%; in test [3] (setting [20]), 1.8%; in test [3] (setting [21]), −8.3%; in test [3] (setting [22]), −15.8%; in test [3] (setting [23]), −9.7%; in test [3] (setting [24]), −15.8%. Besides, the “cell viability, change vs. control (signed, negative = reduced)” value in test [3] (group B (lanreotide non-responsive) mean) is given as −14%. Moreover, the suppressing calcitonin secretion entry in test [4] (MTC, commercially available somatostatin analogs) is recorded as “lack of efficacy”. Besides, the “reducing tumour size and/or increasing patient survival rate” value in test [4] (treatment of MTC patients) is recorded as “little effect”. The Ki amounted to 0.098 µM in test [5] and 2.13 µM in test [2]. The “% CT secretion inhibition vs. control” value is given as −5.2% in test [6] (setting [7]); 21.7% in test [6] (setting [8]); −22.6% in test [6] (setting [9]); 34.7% in test [6] (setting [10]); −19.0% in test [6] (setting [11]); −18.0% in test [6] (setting [12]). For the same molecule, the “% CT secretion inhibition vs. control” value is given as −44.6% in test [6] (setting [13]); 14.7% in test [6] (setting [14]); 9.8% in test [6] (setting [15]); 22.9% in test [6] (setting [16]); −25.1% in test [6] (setting [17]); −20.6% in test [6] (setting [18]). Besides, the “% CT secretion inhibition vs. control” value in test [6] (setting [19]) was −42.5%; in test [6] (setting [20]), −19.8%; in test [6] (setting [21]), −20.9%; in test [6] (setting [22]) it was −34.3%; in test [6] (setting [23]) it was 8.5%; in test [6] (setting [24]), −10.8%. Besides, the “calcitonin secretion reduced / inhibited by” value in test [6] (group A (lanreotide responders) mean) amounted to 27%. In addition, the “calcitonin secretion, change vs. control (signed, negative = reduced)” value in test [6] (group A (lanreotide responsive) mean) is recorded as −27%.

The Ki is the equilibrium dissociation constant of an inhibitor or competing ligand from its target.
